Results taken from patent publication US20060241082A1, “Modulating vesicular monoamine transporter trafficking and function: a novel approach for the treatment of parkinson's disease” (priority 2002, published 2006).
“And” between values parts separate entries of the source, which are not always exact repeats. Identical values can stand only once.

Key:
VMAT-2 [1] = target: T1, VMAT-2 (Rattus norvegicus, UniProt Q01827); test: [3H]DHTBZ binding in purified striatal vesicles prepared from treated rats; details: rats, MDMA 4 x 10 mg/kg s.c., both 1 and 24 h after treatment
Experimental: Synaptic vesicles were obtained from synaptosomes prepared from rat striatum as described above. Synaptosomes were resuspended and homogenized in cold distilled deionized water. Osmolarity was restored by addition of HEPES and potassium tartrate 245 and 100 mM (final concentrations; pH 7.5), respectively. Samples were centrifuged for 20 min at 20,000×g (4° C.) to remove lysed synaptosomal membranes. MgSO4 (1 mM, final concentration) was added to the supernatant, which was then centrifuged for 45 min at 100,000×g (4° C.). The resulting vesicular pellet was resuspended in wash buffer at a concentration of 50 mg/ml (original tissue weight). […] Binding of [^3H]DHTBZ was performed as described by Teng et al. (1998). Briefly, 200 μl of the synaptic vesicle preparation (˜6 μg of protein) was incubated in wash buffer in the presence of [^3H]DHTBZ (2 nM final concentration) for 10 min at 25° C. The reaction was terminated by addition of 1 ml of cold wash buffer and rapid filtration through Whatman GF/F filters soaked in 0.5% polyethylenimine. Filters were washed three times with ice-cold wash buffer. Nonspecific binding was determined by coincubation with 20 μM tetrabenazine. All protein concentrations were determined by a BioRad protein assay (Bio-Rad, Richmond, Calif.).
Binding of [^3H]DHTBZ was performed as described by Teng et al. (1998). Briefly, 200 μl (˜6 μg protein) of the synaptic vesicle preparation was incubated in wash buffer in the presence of [^3H]DHTBZ (2 nM final concentration except in kinetic analyses wherein 0.25-500 nM DHTBZ was employed) for 10 m in at 25° C. The reaction was terminated by addition of 1 ml cold wash buffer and rapid filtration through Whatman GF/F filters soaked in 0.5% polyethylenimine. Filters were washed three times with ice-cold wash buffer. Radioactivity trapped in filters was counted using a liquid scintillation counter. Nonspecific binding was determined by coincubation with 20 μM TBZ. All protein concentrations were determined by a Bio-Rad protein assay (Bio-Rad Inc.).
Binding of[^3H]DHTBZ was performed as described by Teng et al. (1998). Briefly, 200 μl (˜5 μg protein) of the synaptic vesicle preparation was incubated in wash buffer in the presence of [^3H]DHTBZ (2 nM final concentration except in kinetic analyses wherein 0.25-500 nM DHTBZ was employed) for 10 m in at 25° C. The reaction was terminated by addition of 1 ml cold wash buffer and rapid filtration through Whatman GF/F filters soaked in 0.5% polyethylenimine. Filters were washed three times with ice-cold wash buffer. Radioactivity trapped in filters was counted using a liquid scintillation counter. Nonspecific binding was determined by coincubation with 20 μM TBZ. All protein concentrations were determined by a Bio-Rad protein assay (Bio-Rad Inc.).

VMAT-2 [2] = target: T1, VMAT-2; type: in vivo; parameters: purified striatal vesicles prepared from treated rats; from tissue; host or cells: striatum of male Sprague-Dawley rats (synaptic vesicles; P2, P3, S3 fractions); details: rats, MDMA 4 x 10 mg/kg s.c.
Experimental: Osmolarity was restored by addition of N-(2-hydroxyethyl)-piperazine-N′-2-ethanesulfonic acid (HEPES) and potassium tartrate 25 mM and 100 mM (final concentrations; pH 7.5 at 4° C.), respectively.

DAT [3] = target: T2, DAT (Rattus norvegicus, UniProt P23977); test: In vitro preincubation of striatal synaptosomes with MDMA: [3H]DA uptake and WIN35428 binding; type: biochemical; details: 30 min, 37° C.
T2 construct: from tissue; host or cells: striatum of male Sprague-Dawley rats (synaptosomes, P2)
Experimental: (§1) Uptake of [^3H]DA was determined in striatal synaptosomes prepared according to the method described by Kokoshka et al. (1998). Briefly, fresh striatal tissue was homogenized in cold 0.32 M sucrose and centrifuged (800×g for 12 min; 4° C.). The supernatant (S1) was then centrifuged (22,000×g for 15 min; 4° C.), and the resulting pellet (P2) was resuspended in ice-cold modified Kreb's buffer (in mM: 126 NaCl, 4.8 KCl, 1.3 CaCl2, 16 sodium phosphate, 1.4 MgSO4, 11 dextrose, 1-ascorbic acid, pH 7.4). Assays were conducted in Kreb's buffer. Each assay tube contained synaptosomal tissue (i.e., resuspended P2 obtained from 1.5 mg of original wet weight striatal tissue) and 1 μM pargyline. Nonspecific values were determined in the presence of 100 μM cocaine. After preincubation of assay tubes for 10 min at 37° C., assays were initiated by the addition of [^3H]DA (0.5 nM final concentration). Samples were incubated at 37° C. for 3 min. Samples were then filtered through Whatman GF/B filters (Brandel, Gaithersburg, Md.) soaked previously in 0.05% polyethylenimine. Filters were washed rapidly 3 times with 3 ml of ice-cold 0.32 M sucrose using a Brandel filtering manifold. […] Remaining resuspended P2 samples were assayed for protein concentrations according to the method of Lowry et al. (1951). In MDMA preincubation experiments, samples were preincubated with 10 μM MDMA for 30 min at 37° C. After 30 min, resuspended P2 fractions were “washed” by centrifugation (22,000×g for 15 min; 4° C.). The resulting pellet (P3) was then resuspeded in ice-cold Kreb's buffer, and once again centrifuged (22,000×g for 15 min; 4° C.) to obtain a P4 pellet that was subsequently resuspended and assayed. [^3H]WIN35428 binding (0.5 nM final concentration) was conducted in phosphate-buffered 0.32 M sucrose, pH 7.4, with synaptosomes obtained from 2 mg (original wet weight) of striatal tissue per reaction tube, and samples were incubated on ice for 2 hr. Samples were then filtered through Whatman GF/B filters (Brandel, Gaithersburg, Md.) soaked previously in 0.05% polyethylenimine. Filters were washed rapidly 3 times with 3 ml of ice-cold 0.32 M sucrose using a Brandel filtering manifold. […] Remaining resuspended P2 samples were assayed for protein concentrations according to the method of Lowry et al. (1951).

DAT [4] = target: T2, DAT; test: [3H]WIN35428 binding in striatal synaptosomes prepared from treated rats; type: in vivo; details: MDMA 4 x 10 mg/kg s.c.
Experimental: as §1

[5] = target: T3, plasmalemmal DA transporter (DAT) (Rattus norvegicus, UniProt P23977); details: MDMA-treated rats, multiple high-dose, Metzger et al., 1998, cited from earlier work
T3 construct: Uptake of [^3H]DA was determined in striatal synaptosomes; from tissue; host or cells: striatum of male Sprague-Dawley rats (synaptosomes, P2)

[6] = target: T3, plasmalemmal DA transporter (DAT); test: Plasmalemmal [3H]DA uptake in striatal synaptosomes prepared from treated rats; type: in vivo; details: MDMA 4 x 10 mg/kg s.c.
Experimental: Uptake of [^3H]DA was determined in striatal synaptosomes prepared according to the method described by Kokoshka et al. (1998). Briefly, fresh striatal tissue was homogenized in cold 0.32 M sucrose and centrifuged (800×g for 12 min; 4° C.). The supernatant (S1) was then centrifuged (22,000×g for 15 min; 4° C.), and the resulting pellet (P2) was resuspended in ice-cold modified Kreb's buffer (in mM: 126 NaCl, 4.8 KCl, 1.3 CaCl2, 16 sodium phosphate, 1.4 MgSO4, 11 dextrose, 1-ascorbic acid, pH 7.4). Assays were conducted in Kreb's buffer. Each assay tube contained synaptosomal tissue (i.e., resuspended P2 obtained from 1.5 mg of original wet weight striatal tissue) and 1 μM pargyline. Nonspecific values were determined in the presence of 100 μM cocaine. After preincubation of assay tubes for 10 min at 37° C., assays were initiated by the addition of [^3H]DA (0.5 nM final concentration). Samples were incubated at 37° C. for 3 min. Samples were then filtered through Whatman GF/B filters (Brandel, Gaithersburg, Md.) soaked previously in 0.05% polyethylenimine. Filters were washed rapidly 3 times with 3 ml of ice-cold 0.32 M sucrose using a Brandel filtering manifold. […] Remaining resuspended P2 samples were assayed for protein concentrations according to the method of Lowry et al. (1951). In MDMA preincubation experiments, samples were preincubated with 10 μM MDMA for 30 min at 37° C. After 30 min, resuspended P2 fractions were “washed” by centrifugation (22,000×g for 15 min; 4° C.). The resulting pellet (P3) was then resuspeded in ice-cold Kreb's buffer, and once again centrifuged (22,000×g for 15 min; 4° C.) to obtain a P4 pellet that was subsequently resuspended and assayed. [^3H]WIN35428 binding (0.5 nM final concentration) was conducted in phosphate-buffered 0.32 M sucrose, pH 7.4, with synaptosomes obtained from 2 mg (original wet weight) of striatal tissue per reaction tube, and samples were incubated on ice for 2 hr. Samples were then filtered through Whatman GF/B filters (Brandel, Gaithersburg, Md.) soaked previously in 0.05% polyethylenimine. […]

VMAT-2 [7] = target: VMAT-2 (Mus musculus, UniProt Q8BRU6); test: Vesicular [3H]dopamine uptake in striatal vesicles prepared from treated mice; type: in vivo; details: MDMA 4 x 10 mg/kg s.c.
Experimental: (A. E. Fleckenstein, et al., J. Pharmacol Exp Ther. (1997) 282:834-838). Briefly, fresh tissue was homogenized in ice-cold 0.32 M sucrose. The homogenate was centrifuged (800×g for 12 min; 4° C.), and the supernatant (S1) was carefully removed and centrifuged (22,000×g for 15 min; 4° C.) to obtain the synaptosomal-containing pellet (P2). The resulting P2 were resuspended and homogenized in ice-cold distilled deionized water. Osmolarity was restore by addition 25 mM HEPES and 100 mM potassium tartrate (final concentration; pH 7.5 at 4° C. respectively). […] The resultant S3 removed and MgSO4 added (final concentration of [1 mM] pH 7.5 at 4° C.) and centrifuged at 100,000×g for 45 min. The final P4 were resuspended at 50 mg/ml (original tissue wet weight).

T1 sequence (Q01827 whole entry): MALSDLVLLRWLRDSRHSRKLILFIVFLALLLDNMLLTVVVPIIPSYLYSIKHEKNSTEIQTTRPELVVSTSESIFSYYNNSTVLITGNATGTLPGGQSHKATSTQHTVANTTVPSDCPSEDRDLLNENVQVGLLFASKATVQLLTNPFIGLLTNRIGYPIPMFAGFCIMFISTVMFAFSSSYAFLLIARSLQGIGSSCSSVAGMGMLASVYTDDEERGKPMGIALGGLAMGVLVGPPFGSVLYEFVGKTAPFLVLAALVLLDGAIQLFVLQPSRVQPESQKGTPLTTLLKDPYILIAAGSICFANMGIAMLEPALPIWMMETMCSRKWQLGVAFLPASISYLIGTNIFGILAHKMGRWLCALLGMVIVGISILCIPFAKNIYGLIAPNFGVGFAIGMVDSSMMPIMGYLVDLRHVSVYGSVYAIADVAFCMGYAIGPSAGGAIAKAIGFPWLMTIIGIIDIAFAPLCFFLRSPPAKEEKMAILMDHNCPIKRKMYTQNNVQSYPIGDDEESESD
T2 sequence (P23977 whole entry): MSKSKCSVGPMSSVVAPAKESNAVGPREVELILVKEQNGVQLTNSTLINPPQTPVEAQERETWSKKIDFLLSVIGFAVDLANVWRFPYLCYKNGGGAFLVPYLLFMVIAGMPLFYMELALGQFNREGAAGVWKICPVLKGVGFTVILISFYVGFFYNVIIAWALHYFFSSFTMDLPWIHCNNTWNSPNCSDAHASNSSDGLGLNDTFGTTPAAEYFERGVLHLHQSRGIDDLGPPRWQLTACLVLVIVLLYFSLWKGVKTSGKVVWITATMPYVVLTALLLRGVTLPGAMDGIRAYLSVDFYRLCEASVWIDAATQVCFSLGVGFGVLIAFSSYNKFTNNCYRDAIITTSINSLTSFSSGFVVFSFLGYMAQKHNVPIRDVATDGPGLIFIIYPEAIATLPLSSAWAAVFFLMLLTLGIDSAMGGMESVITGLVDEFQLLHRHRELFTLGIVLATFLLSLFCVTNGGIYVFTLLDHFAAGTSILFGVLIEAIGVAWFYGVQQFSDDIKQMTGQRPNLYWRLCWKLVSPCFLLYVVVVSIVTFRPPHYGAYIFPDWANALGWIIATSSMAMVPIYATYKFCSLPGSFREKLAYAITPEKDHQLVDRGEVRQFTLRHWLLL
T3 sequence (P23977 whole entry): as above
VMAT-2 (Mus musculus, UniProt Q8BRU6), sequence (Q8BRU6 whole entry): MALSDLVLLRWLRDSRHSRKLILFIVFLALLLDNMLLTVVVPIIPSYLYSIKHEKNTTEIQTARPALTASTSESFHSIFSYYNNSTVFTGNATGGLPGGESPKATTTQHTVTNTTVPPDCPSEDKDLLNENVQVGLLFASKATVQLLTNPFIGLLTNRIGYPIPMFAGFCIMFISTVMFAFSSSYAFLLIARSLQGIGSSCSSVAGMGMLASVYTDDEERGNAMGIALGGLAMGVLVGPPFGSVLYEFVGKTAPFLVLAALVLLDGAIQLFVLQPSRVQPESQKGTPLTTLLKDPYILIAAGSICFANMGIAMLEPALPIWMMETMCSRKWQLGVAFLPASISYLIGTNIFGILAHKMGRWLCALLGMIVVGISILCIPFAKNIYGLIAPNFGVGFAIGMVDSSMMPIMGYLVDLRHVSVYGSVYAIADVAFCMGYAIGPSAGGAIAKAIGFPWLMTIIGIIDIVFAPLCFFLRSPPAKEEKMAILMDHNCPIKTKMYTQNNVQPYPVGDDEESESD

Q: With `CNC(C)Cc1ccc2c(c1)OCO2` (stereo not drawn) [MDMA, methylenedioxymethamphetamine] as the compound, how does the “binding of the VMAT-2 ligand [3H]DHTBZ” value (VMAT-2 [1]) read?
A: The value was “reduced”.

Q: What about the “deficit in vesicular DA uptake” value (VMAT-2 [2]; 1 h) of the same compound?
A: Its value is 25-30%.

Q: What about the “vesicular DA uptake 1 h after multiple MDMA administrations” value (VMAT-2 [2]; 1 h) of the same compound?
A: Its value is “rapidly decreased”.

Q: And the “deficit in vesicular DA uptake 24 h after drug treatment” value (VMAT-2 [2]; 24 h)?
A: Its value is “partially recovered”.

Q: What about the “WIN35428 binding after incubation of synaptosomes with MDMA” value (DAT [3]; MDMA 10 μM) of the same compound?
A: Its value is “no effect”.

Q: And the “decrease in DA uptake in vitro” value (DAT [3]; striatal synaptosomes incubated with MDMA 10 μM)?
A: The value was 35-55%.

Q: What about the “WIN35428 binding in the body temperature experiment” value (DAT [4]; 6 or 24° C. ambient, 1 h (data not shown)) of the same compound?
A: The value was “not affected”.

Q: What about the “decrease in WIN35428 binding” value (DAT [4]; 1 h after treatment) of the same compound?
A: Its value is 10% and 18%.

Q: What about the “deficit in WIN35428 binding 24 h after drug treatment” value (DAT [4]; 24 h) of the same compound?
A: The value was “persisted”.

Q: And the “Vmax of plasmalemmal DA uptake” value [5]?
A: The value was 1410 fmol/μg/5 min.

Q: And the Km ([5]; read-out: transporter Km of plasmalemmal DA uptake)?
A: Its Km is 0.0989 µM.

Q: And the “magnitude of the decrease in plasmalemmal DA uptake” value ([6]; 2-h intervals, 1 h)?
A: Its value is 35-55%.

Q: And the “deficit in plasmalemmal DA uptake 24 h after drug treatment” value ([6]; 24 h)?
A: Its value is “reversed”.

Q: What about the “vesicular dopamine uptake after multiple MDMA administrations” value (VMAT-2 [7]; 1 h) of the same compound?
A: Its value is “rapidly decreased”.

Q: What about the “decrease in vesicular dopamine uptake 24 h later” value (VMAT-2 [7]; 24 h) of the same compound?
A: Its value is “largely reversed”.
